Reference: ChEMBL document CHEMBL3885861, “Open TG-GATES”

Species: Rattus norvegicus
Test: Open TG-GATES - Regimen: Daily Repeat
Assay type: toxicity, organism-based, Sprague-Dawley
Parameters: regimen Daily Repeat, gender Male, age 6 weeks
Conditions: in vivo, po, route gavage; for IP / K / LDH / Na / PL / RALB / TBIL / TC / TG / TP / gamma-GTP / A/G / ALP / ALT / AST / BUN / CRE / Ca / Cl / DBIL / GLC: tissue Plasma; for APTT / Bas / Eos / Fbg / Hb / Ht / Lym / MCH / MCHC / MCV / Mono / Neu / PT / Plat / RBC / Ret / WBC: tissue Blood; for KIDNEY_L / KIDNEY_R / KIDNEY_TOTAL: tissue Kidney; for LIVER: tissue Liver
[1] = 0 mg/kg, […], dose level Control, time 28 day
[2] = 3 mg/kg, 72 h, dose level Low, time 3 day
[3] = 3 mg/kg, […], dose level Low, time 7 day
[4] = 3 mg/kg, […], dose level Low, time 14 day
[5] = 3 mg/kg, […], dose level Low, time 28 day

Work on `CCN(CC)N=O` [N-NITROSODIETHYLAMINE] yielded an IP [1] of 6.9 mg/dL, a K [1] of 3.7 meq/L and an LDH [1] of 203 IU/L. The Na [1] was 141 meq/L, the PL [1] was 135.2 mg/dL and the RALB [1] was 3.5 g/dL. The TBIL [1] was 0.2 mg/dL, the TC [1] was 72.4 mg/dL and the TG [1] was 104 mg/dL. For the same molecule, the TP [1] was 6.1 g/dL, the gamma-GTP [1] was 1.2 IU/L and the TERMINAL_BW [2] was 235.3 g. The APTT [2] was 18.7 s, the Bas [2] was 0.2% and the Eos [2] was 1%. It also gave a Fbg [2] of 224.6 mg/dL, a Hb [2] of 13.3 g/dL and a Ht [2] of 38.4%. For the same molecule, the Lym [2] was 82%, the MCH [2] was 21.3 pg and the MCHC [2] was 34.7%. The MCV [2] was 61.5 fL, the Mono [2] was 2% and the Neu [2] was 14.2%. For the same molecule, the PT [2] was 11.7 s, the Plat [2] was 134.1 x10_4/uL and the RBC [2] was 624.4 x10_4/ul. It also gave a Ret [2] of 5.5%, a WBC [2] of 68.1 x10_2/uL and a KIDNEY_L [2] of 1.1 g. The KIDNEY_R [2] was 1.1 g, the KIDNEY_TOTAL [2] was 2.1 g and the LIVER [2] was 10.5 g. The A/G [2] was 1.5, the ALP [2] was 1018.6 IU/L and the ALT [2] was 33 IU/L. The AST [2] was 65.8 IU/L, the BUN [2] was 14.2 mg/dL and the CRE [2] was 0.4 mg/dL. For the same molecule, the Ca [2] was 10.8 mg/dL, the Cl [2] was 102.6 meq/L and the DBIL [2] was 0.094 mg/dL. For the same molecule, the GLC [2] was 204.6 mg/dL, the IP [2] was 8.5 mg/dL and the K [2] was 4.3 meq/L. The LDH [2] was 217.4 IU/L, the Na [2] was 140.6 meq/L and the PL [2] was 142.4 mg/dL. The RALB [2] was 3.3 g/dL, the TBIL [2] was 0.1 mg/dL and the TC [2] was 72.4 mg/dL. It also gave a TG [2] of 114.4 mg/dL, a TP [2] of 5.5 g/dL and a gamma-GTP [2] of 1.4 IU/L. It also gave a TERMINAL_BW [3] of 272 g, a TERMINAL_BW [4] of 323.6 g and a TERMINAL_BW [5] of 391.5 g. For the same molecule, the APTT [3] was 20.6 s, the Bas [3] was 0% and the Eos [3] was 1%. For the same molecule, the Fbg [3] was 219.2 mg/dL, the Hb [3] was 14 g/dL and the Ht [3] was 40%. The Lym [3] was 78.2%, the MCH [3] was 21.1 pg and the MCHC [3] was 34.8%. The MCV [3] was 60.7 fL, the Mono [3] was 3% and the Neu [3] was 17.2%. The PT [3] was 11.9 s, the Plat [3] was 142 x10_4/uL and the RBC [3] was 659.8 x10_4/ul. For the same molecule, the Ret [3] was 4.8%, the WBC [3] was 96.9 x10_2/uL and the APTT [4] was 19.8 s. For the same molecule, the Bas [4] was 0.8%, the Eos [4] was 1% and the Fbg [4] was 213.2 mg/dL. It also gave a Hb [4] of 14.4 g/dL, a Ht [4] of 41.3% and a Lym [4] of 78.4%. The MCH [4] was 20.8 pg, the MCHC [4] was 34.9% and the MCV [4] was 59.5 fL. The Mono [4] was 2%, the Neu [4] was 17.4% and the PT [4] was 12 s. The Plat [4] was 139.4 x10_4/uL, the RBC [4] was 695.4 x10_4/ul and the Ret [4] was 4.1%. For the same molecule, the WBC [4] was 103.2 x10_2/uL, the APTT [5] was 19.1 s and the Bas [5] was 0.6%. For the same molecule, the Eos [5] was 1.2%, the Fbg [5] was 215.6 mg/dL and the Hb [5] was 15.4 g/dL. The Ht [5] was 42.5%, the Lym [5] was 80.4% and the MCH [5] was 20.3 pg. The MCHC [5] was 36.3%, the MCV [5] was 55.9 fL and the Mono [5] was 2.4%. It also gave a Neu [5] of 15%, a PT [5] of 11.7 s and a Plat [5] of 124.2 x10_4/uL. For the same molecule, the RBC [5] was 759.6 x10_4/ul, the Ret [5] was 2.9% and the WBC [5] was 104.7 x10_2/uL. For the same molecule, the KIDNEY_L [3] was 1.2 g, the KIDNEY_R [3] was 1.2 g and the KIDNEY_TOTAL [3] was 2.3 g. For the same molecule, the KIDNEY_L [4] was 1.3 g, the KIDNEY_R [4] was 1.2 g and the KIDNEY_TOTAL [4] was 2.5 g. The KIDNEY_L [5] was 1.3 g, the KIDNEY_R [5] was 1.3 g and the KIDNEY_TOTAL [5] was 2.7 g. The LIVER [3] was 12 g, the LIVER [4] was 13 g and the LIVER [5] was 14 g. It also gave an A/G [3] of 1.6, an ALP [3] of 847.6 IU/L and an ALT [3] of 31.2 IU/L. It also gave an AST [3] of 67.2 IU/L, a BUN [3] of 15.4 mg/dL and a CRE [3] of 0.4 mg/dL. The Ca [3] was 10.6 mg/dL, the Cl [3] was 103.4 meq/L and the DBIL [3] was 0.1 mg/dL. The GLC [3] was 191.6 mg/dL, the IP [3] was 8.2 mg/dL and the K [3] was 4.4 meq/L. The LDH [3] was 214.2 IU/L, the Na [3] was 140.4 meq/L and the PL [3] was 131.6 mg/dL. The RALB [3] was 3.4 g/dL, the TBIL [3] was 0.2 mg/dL and the TC [3] was 66.8 mg/dL. It also gave a TG [3] of 122.2 mg/dL, a TP [3] of 5.5 g/dL and a gamma-GTP [3] of 1 IU/L. The A/G [4] was 1.4, the ALP [4] was 752 IU/L and the ALT [4] was 36 IU/L. For the same molecule, the AST [4] was 68.6 IU/L, the BUN [4] was 15.2 mg/dL and the CRE [4] was 0.4 mg/dL. The Ca [4] was 10.6 mg/dL, the Cl [4] was 102 meq/L and the DBIL [4] was 0.096 mg/dL. For the same molecule, the GLC [4] was 192.2 mg/dL, the IP [4] was 7.7 mg/dL and the K [4] was 3.9 meq/L. It also gave an LDH [4] of 190.2 IU/L, a Na [4] of 141.2 meq/L and a PL [4] of 129.4 mg/dL. The RALB [4] was 3.4 g/dL, the TBIL [4] was 0.2 mg/dL and the TC [4] was 68.8 mg/dL. For the same molecule, the TG [4] was 79.4 mg/dL and the TP [4] was 5.8 g/dL.
